From publication PMC11820896, “New Compounds with Enhanced Biological Activity Through the Strategic Introduction of Silylated Groups into Hydroxystearic Acids” (Molecules, 2025)

Legend:
SCD1 = SCD1 mRNA expression, qRT-PCR; assay type: cell-based, human; settings: after 24 h, HT29
Experimental: Total RNA from control- and 4-treated HT29 cells was isolated using the RNeasy Mini Kit (Qiagen, Hilden, Germany) according to the manufacturer's protocol. RNA was quantified using the NanoDrop spectrophotometer (Thermo Fisher Scientific, Waltham, MA, USA). RNA (1 μg) was transcribed into cDNA using the PrimeScript RT Master Mix (Perfect Real Time) (Takara Bio, Kusatsu, Japan) according to the manufacturer's instructions. Real-time PCR was performed using the Sybr Premix Ex Taq Takara kit (Takara Bio, Kusatsu, Japan) and the LightCycler 2.0 instrument (Roche Diagnostic, Basel, Switzerland). The following primers (Sigma-Aldrich, Milan, Italy) were used: [NT] (forward) and [NT] (reverse) for FASN detection, [NT] (forward) and [NT] (reverse) for SCD1 detection, and [NT] (forward) and [NT] (reverse) for the detection of β-actin. The first gene analyzed was the housekeeping gene β-actin, and its CT values were used as standards in the ΔΔCT method of result analysis. cDNA samples from HT29-treated cells were compared with untreated control cells.

HT29 cells = assay: ROS assay (DClFDA staining); assay type: cell-based, human; settings: 24 h treatment
Experimental: ROS were detected by DClFDA staining. This probe is not fluorescent and is permeable to alive cells, where the acetometoxyesther is cleaved by the […] intracellular estherases. This product is made fluorescent by the concomitant action of ROS, which peroxidize the molecule. The intensity of the fluorescence is, therefore, proportional to the production of intracellular ROS. HT29 cells were grown on a 96-well black plate, treated for 24 h with 4, washed in Hanks’ buffer, stained with 2 µM DClFDA, and incubated at 37 °C in the dark for 30 min. Negative controls were treated in the same way, but DClFDA was not added to these samples. The cells were washed in fresh Hanks’ buffer and resuspended in Hanks’ buffer containing Hoechst 33342 1 µg/mL to stain cell nuclei, to evaluate the cell density in the wells. The fluorescences were read with the plate reader Ensight (Perkin Elmer, Waltham, MA, USA) with excitation wavelengths, respectively, 488 nm for DClF and 360 nm for Hoechst and emission wavelength 535 nm for DClF and 454 for Hoechst 33342. The intensity of DClF fluorescence was normalized on Hoechst fluorescence and is expressed in Arbitrary Units (AU).

J6 = assay: MTT assay, Jurkat J6 cells; assay type: cell-based; settings: Homo sapiens, means of four experiments, na = not active, read-out: In vitro cytotoxic activity (IC50), J6
Experimental: (§1) The human colorectal adenocarcinoma (Caco-2), human colorectal adenocarcinoma (HT29), normal human intestinal (I407), human cervical cancer (HeLa), human breast cancer (MCF7), human bone osteosarcoma (U2OS), and human acute T-cell leukemia (Jurkat J6) cell lines were purchased from American Type Culture Collection (ATCC, Manassas, VA, USA). Cells were cultured in RPMI 1640 medium (Labtek Eurobio, Milan, Italy), supplemented with 10% FCS (Euroclone, Milano, Italy) and 2 mM L-glutamine (Sigma-Aldrich, Milano, Italy), at 37 °C and in a 5% CO2 atmosphere. The compounds were dissolved in DMSO in a 30–40 mM stock solution. In cell treatments, the final DMSO concentration never exceeded 0.1%.
(§2) Cells were seeded in a 96-well culture plastic plate (Sarsted, Milan, Italy), at 5 × 10^4 cells/well and, after 24 h, were exposed to increasing concentrations of the different compounds (from 1 nM to 500 nM) dissolved in RPMI 1640 medium. An MTT assay was performed according to Micheletti et al..
(§3) The absorbance at 570 nm was measured using a multi-well plate reader (Tecan, Männedorf, Switzerland), and data were analyzed by Prism GraphPad 8 software and expressed as IC50 nM.

Caco-2 = assay: MTT assay, Caco-2 cells; assay type: cell-based, human; settings: Homo sapiens, MTT after 24 h of treatment, means of four experiments
Experimental: as §1, §2, §3

MTT assay, Caco-2 cells = assay type: cell-based, human; settings: human, versus normal I407 cells, read-out: S.I. (Selective Index), Caco-2
Experimental: as §1, §2, §3

Compound: CCCCCCCCC[C@H](CCCCCCCC(=O)O)O[Si](C)(C)C(C)(C)C [Compound 4, (R)-9-((tert-butyldimethylsilyl)oxy)octadecanoic acid]
- SCD1 gene expression (SCD1): decreases
- change in ROS content (HT29 cells): does not lead to a change
- IC50 (J6): 214.1 ± 0.26 nM
- IC50 (Caco-2): 23.39 ± 0.12 nM
- selectivity ratio (MTT assay, Caco-2 cells): 2.65
